Laboratory results as given in the supplement of paper PMC10307832.

Tests used:
Test in all cases: relative viability (nuclei count vs DMSO), 5 days (fraction); higher = more cells survive
IPA-3 + Pictilisib = compound: C1=CC=C2C(=C1)C=CC(=C2SSC3=C(C=CC4=CC=CC=C43)O)O [IPA-3] + CS(=O)(=O)N1CCN(Cc2cc3nc(-c4cccc5[nH]ncc45)nc(N4CCOCC4)c3s2)CC1 [Pictilisib] (partner 1 µM)
In short: (§1)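 Lung cancer cell lines, seeded in 1536-well plates, were treated the following day by pin tool with a single drug or with five library-drug doses (not always all listed) in √10 steps on top of a fixed anchor-drug dose. Cells were fixed and nuclei stained in one step after 5 days, and nuclei were counted. Relative viability is the nuclei count for treated wells divided by that for vehicle wells, reported as medians of duplicate plates.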

RAF265 + Linsitinib = compound: Cn1c(Nc2ccc(C(F)(F)F)cc2)nc2cc(Oc3ccnc(-c4ncc(C(F)(F)F)[nH]4)c3)ccc21 [RAF265] + C[C@]1(O)C[C@@H](c2nc(-c3ccc4ccc(-c5ccccc5)nc4c3)c3c(N)nccn32)C1 [Linsitinib] (partner 1 µM)
In short: as §1

IPA-3 + Palbociclib = compound: C1=CC=C2C(=C1)C=CC(=C2SSC3=C(C=CC4=CC=CC=C43)O)O [IPA-3] + CC(=O)c1c(C)c2cnc(Nc3ccc(N4CCNCC4)cn3)nc2n(C2CCCC2)c1=O [Palbociclib] (partner 0.5 µM)
In short: as §1

RAF265 + Navitoclax = compound: Cn1c(Nc2ccc(C(F)(F)F)cc2)nc2cc(Oc3ccnc(-c4ncc(C(F)(F)F)[nH]4)c3)ccc21 [RAF265] + CC1(C)CCC(c2ccc(Cl)cc2)=C(CN2CCN(c3ccc(C(=O)NS(=O)(=O)c4ccc(N[C@H](CCN5CCOCC5)CSc5ccccc5)c(S(=O)(=O)C(F)(F)F)c4)cc3)CC2)C1 [Navitoclax] (partner 0.5 µM)
In short: as §1

Cell Line	relative viability (IPA-3 + Pictilisib; first compound 0.2 µM)	relative viability (IPA-3 + Pictilisib; first compound 0.6325 µM)	relative viability (IPA-3 + Pictilisib; first compound 2 µM)	relative viability (IPA-3 + Pictilisib; first compound 6.325 µM)	relative viability (IPA-3 + Pictilisib; first compound 20 µM)	relative viability (RAF265 + Linsitinib; first compound 0.01 µM)	relative viability (RAF265 + Linsitinib; first compound 0.03162 µM)	relative viability (RAF265 + Linsitinib; first compound 0.1 µM)	relative viability (RAF265 + Linsitinib; first compound 0.3162 µM)	relative viability (RAF265 + Linsitinib; first compound 1 µM)	relative viability (IPA-3 + Palbociclib; first compound 0.2 µM)	relative viability (IPA-3 + Palbociclib; first compound 0.6325 µM)	relative viability (IPA-3 + Palbociclib; first compound 2 µM)	relative viability (IPA-3 + Palbociclib; first compound 6.325 µM)	relative viability (IPA-3 + Palbociclib; first compound 20 µM)	relative viability (RAF265 + Navitoclax; first compound 0.01 µM)	relative viability (RAF265 + Navitoclax; first compound 0.03162 µM)	relative viability (RAF265 + Navitoclax; first compound 0.1 µM)	relative viability (RAF265 + Navitoclax; first compound 0.3162 µM)	relative viability (RAF265 + Navitoclax; first compound 1 µM)
NCI-H2009	0.889	0.726	0.784	0.83	0.57	1.23	1.12	1.13	1.04	0.788	0.203	0.202	0.2	0.231	0.151	1.19	1.15	1.16	1.13	0.858
NCI-H1651	0.649		0.581	0.659	0.799	0.999	0.976	1.07	0.74	0.737	0.534	0.511	0.541	0.528	0.602	0.992	0.884	1.06	0.874	0.871
HARA	0.452	0.346	0.333	0.4	0.402	0.904	0.715	0.891	0.608	0.406	0.255	0.24	0.255	0.27	0.235	1.15	1.05	1.1	1.21	0.824
NCI-H1944	0.351	0.344	0.371	0.38	0.345	1.25	1.37	1.08	0.64	0.716	0.333	0.326	0.389	0.384	0.334	1.11	1.06	1.15	0.798	0.86
NCI-H2347	0.423	0.644	0.522	0.717	0.605	1.2	0.923	0.924	0.744	0.544	0.409	0.45	0.429	0.414	0.448	1.03	0.786	0.864	0.456	0.467
201T	0.748	0.684	0.671	0.714	0.809	1.04	0.982	0.994	0.89	0.885	0.363	0.38	0.391	0.342	0.388	1.23	1.2	1.23	1.27	1.28
PC-14	1.1	0.562	0.804	0.678	1.19	1.02	0.968	1.02		0.788	0.648	0.324	0.512	0.446	0.352	0.955	1.03	1.03	0.985	0.854
NCI-H727	0.583	0.229	0.456	0.513	0.402	0.38	0.26	0.254	0.327	0.132	0.671	0.784	0.644	0.63	0.625	0.531	0.539	0.512	0.363	0.229
NCI-H1792	0.258	0.285	0.25	0.272	0.325	0.576	0.506	0.583	0.326	0.126	0.684	0.658	0.662	0.677	0.731	0.637	0.597	0.641	0.541	0.459
COR-L23	1.01	0.75	0.764	0.615	0.72	0.847	0.838	0.662	0.431	0.312	0.283	0.301	0.316	0.266	0.118	0.976	0.957	0.918	0.512	0.514
HOP-62	1.04	0.651	0.589	0.668	0.63	0.89		1.07	0.976	0.604	0.435	0.365	0.414	0.451	0.513	0.942	0.963	0.921	0.995	0.951
NCI-H1915	0.956	0.987	0.903	0.966	0.933	1.1	1.01	1.03	0.653	0.323	0.498	0.514	0.534	0.495	0.54	0.76	0.72	0.712	0.407	0.281
BEN	0.6	0.596	0.66	0.697	0.601	0.897	1.01	1.12	0.939	0.791	0.432	0.471	0.43	0.532	0.457	0.0592	0.0731	0.0721	0.0801	0.0649
NCI-H1437	0.562	0.486	0.458	0.61	0.616	1.09	1.01	1.08	1	0.945	0.409	0.359	0.317	0.291	0.285	1.1	1.06	1.01	1.18	1.1
EMC-BAC-2	0.552	0.53	0.531	0.529	0.636	0.761	0.793	0.734	0.596	0.348	0.537	0.509	0.527	0.516	0.532	1.11	1.06	1.05	0.941	0.612
NCI-H647	0.44	0.351	0.363	0.434	0.471	0.801	0.991	1.01	0.574	0.519	0.561	0.373	0.371	0.206	0.0359	1.2	0.954	0.977	0.895	0.458

Cell Line	relative viability (IPA-3 + Pictilisib; first compound 0.2 µM)	relative viability (IPA-3 + Pictilisib; first compound 0.6325 µM)	relative viability (IPA-3 + Pictilisib; first compound 2 µM)	relative viability (IPA-3 + Pictilisib; first compound 6.325 µM)	relative viability (IPA-3 + Pictilisib; first compound 20 µM)	relative viability (RAF265 + Linsitinib; first compound 0.01 µM)	relative viability (RAF265 + Linsitinib; first compound 0.03162 µM)	relative viability (RAF265 + Linsitinib; first compound 0.1 µM)	relative viability (RAF265 + Linsitinib; first compound 0.3162 µM)	relative viability (RAF265 + Linsitinib; first compound 1 µM)	relative viability (IPA-3 + Palbociclib; first compound 0.2 µM)	relative viability (IPA-3 + Palbociclib; first compound 0.6325 µM)	relative viability (IPA-3 + Palbociclib; first compound 2 µM)	relative viability (IPA-3 + Palbociclib; first compound 6.325 µM)	relative viability (IPA-3 + Palbociclib; first compound 20 µM)	relative viability (RAF265 + Navitoclax; first compound 0.01 µM)	relative viability (RAF265 + Navitoclax; first compound 0.03162 µM)	relative viability (RAF265 + Navitoclax; first compound 0.1 µM)	relative viability (RAF265 + Navitoclax; first compound 0.3162 µM)	relative viability (RAF265 + Navitoclax; first compound 1 µM)
LXF-289	0.85	0.703	0.772	0.791	0.918	0.916	0.919	0.947	0.815	0.792	0.606	0.579	0.556	0.568	0.642	0.919	0.905	0.935	0.818	0.807
LOU-NH91	0.505	0.501	0.567	0.523	0.57	1.03	0.818	1.03	0.599	0.644	0.535	0.525	0.552	0.511	0.572	0.731	0.594	0.757	0.389	0.387
NCI-H23	0.672	0.531	0.473	0.509	0.611	0.668	0.541	0.437	0.321	0.202	0.477	0.4	0.486	0.486	0.542	0.886	0.825	0.775	0.553	0.317
NCI-H1993	0.735	0.742	0.969	0.681	1.04	0.68	0.763	0.66	0.713	0.722	0.702	0.732	0.656	0.516	0.545	1.1	0.947	1.08	0.719	0.783
HCC-827	1.05	0.976	0.951	1.19	1.05	0.968	0.973	0.978		0.762	0.559	0.475	0.484	0.53	0.568	1.06	0.987	1.08		0.78
CAL-12T	0.442	0.494	0.397	0.441	0.348	0.969	0.659	0.671	0.43	0.4	0.718	0.342	0.404	0.28	0.421	1.28	1.01	0.861	0.757	0.523
NCI-H838	0.533	0.455	0.451	0.463	0.337	1.12	1.01	1.02	1.03	0.77	0.278	0.202	0.209	0.225	0.204	1.23	1.14	1.15	1.1	1.01
NCI-H2228	0.74	0.223	0.343	0.513	0.439	0.628	0.698	0.409	0.436	0.327	0.825	0.71	0.474	1	0.752	0.741	0.971	0.903	0.945	0.726
RERF-LC-KJ	0.626	0.501	0.537	0.38	0.486	0.915	0.835	0.95	0.859	0.636	1.19	1.04	1.08	1.16	0.826	1.08	0.95	0.851	0.747	0.841
HCC-366	0.161	0.152	0.0986	0.184	0.136	0.674	0.69	0.881	0.748	0.459	0.479	0.382	0.374	0.378	0.474	1.09	1.15	1.13	1.09	0.776
SK-LU-1	0.617	0.612	0.579	0.712	0.645	1.14	0.7	0.687	0.523	0.428	0.446	0.341	0.374	0.401	0.411	1.41	0.682	0.718	0.744	0.273
HCC-44	0.605	1.49	0.53	1.04	0.63	0.643	0.617	0.667	0.661	0.64	0.966	1.02	0.979	0.948	0.934	0.879	0.884	1.03	1.03	0.916
A-427	0.682	0.683	0.784	0.604	0.784	1.15	1.07	1.16	0.676	0.499	0.531	0.499	0.511	0.515	0.52	0.929	0.678	0.96	0.579	0.272
SW 1573	0.593	0.503	0.6	0.479	0.61	0.767	0.744	0.796	0.612	0.508	0.492	0.332	0.412	0.363	0.0729	1.23	0.984	1.04	0.89	0.389
NCI-H322M	0.501	0.272	0.508	0.481	0.572	0.929	0.807	0.662	0.377	0.256	0.48	0.452	0.433	0.525	0.514	1.18	1.14	1.15	0.381	0.274
LK-2	0.47	0.572	0.708	0.646	0.695	0.615	0.555	0.67	0.671	0.351	0.847	0.643	0.709	0.818	0.706	0.777	0.791	0.832	0.633	0.57
